Read-outs that look alike come from different tables or passages of the source.
Key:
[1] = biological target: T1, mouse cGAS (Mus musculus, UniProt Q8C6L5); test: RapidFire mass spectrometry (RF-MS) cGAS enzymatic assay, cGAMP product formation; assay type: biochemical; details: for kcat / Km: substrate of mouse cGAS, no inhibitor; for Km: allosteric sigmoidal fitting; for inhibition at 12.5 µM: read-out: % inhibition at 12.5 µM; for effect of structural modification on cGAS inhibitory potency: compared with RU.365
T1 construct: recombinant full-length mouse cGAS in reaction buffer; His6-SUMO (N, cleaved yes); made in house; host or cells: E. coli BL21(DE3) RIL
Protocol: The liquid was collected at the well bottom using centrifugation for 30 s at 180×g. […] Plates were centrifuged for 30 s at 180×g to collect all liquid at the bottom of the wells. […] The reaction was stopped by addition of 65 µl of 0.5% (v/v) formic acid per well. The plates were centrifuged for 30 s at 180×g and sealed with a Velocity11 PlateLoc thermal plate sealer.
The solvent used for loading/washing process was an aqueous solution of 5 mM ammonium acetate, pH 10. […] Each sample of approximately 35 µl were aspirated from a 384-well plate and separated using a Graphitic carbon Type D cartridge. After each sample was loaded onto the cartridge it was washed for 4 s at 1.5 ml min^−1 using the aqueous solvent. ATP, GTP and cGAMP were eluted for 5 s using the organic solvent at a flow rate of 1.5 ml min^−1. The cartridge was then re-equilibrated with the aqueous solvent for 5 s at a flow rate of 1.5 ml min^−1. All samples were analyzed using a negative ionization mode in the mass spectrometer, with a gas temperature of 350 °C, nebulizer pressure of 35 psig, gas flow rate of 15 l min^−1. […] The Agilent RapidFire Integrator software was used to calculate the area under the curve (AUC) of the extracted ion counts for each analyte. Data points represent values of product formation. Catalytic rates expressed as percent product formation were calculated using the AUC of cGAMP and using the AUC’s of ATP and GTP to normalize for variations in the capacity of the solid phase extraction column during a screening run, as shown in the following formula: product formation (%) = [(AUCcGAMP × 100)/(AUCcGAMP + ½ AUCATP + ½ AUCGTP)].
To determine the percent inhibition of mouse cGAS the data was normalized against the positive control (column 24) and negative control (column 23). […] The quality of the screen was assessed by Z′ factor[57] calculated as follows: Z′ = 1−[3∗(standard deviation positive control + standard deviation negative control)/(average positive control—average negative control)].

[2] = system: 45-bp dsDNA; test: DNA intercalation: acridine orange displacement from dsDNA by fluorescence polarization; assay type: binding; details: Supplementary Table 2; for % intercalation at 30 µM: acridine orange displacement compared to mitoxantrone; for Polarization: compound 30 µM
Protocol: Ten microliters of HEN buffer (10 mM HEPES pH 7.5, 1 mM EDTA pH 7.5, 100 mM NaCl) were dispensed per well using a Thermo Multidrop Combi dispenser (Thermo Scientific). The liquid was collected at the well bottom using centrifugation for 30 s at 180×g. […] The final concentration of compounds in the assay was 30 µM. […] The liquid was collected at the well bottom using centrifugation for 30 s at 180×g. […] The liquid was collected at the well bottom using centrifugation for 30 s at 180 × g and the plates were incubated for 30 min. Mitoxantrone, a known DNA intercalator was used at 50 µM as a positive control, while DMSO alone was used as negative control. FP was measured using a Biotek Synergy Neo plate reader. […] All FP values are expressed in millipolarization (mP) units. The mP values were calculated using the equation mP = 1000 × [(I S−I SB)−(I P−I PB)]/[I S—I SB) + (I P−I PB)], where I S and […] to the parallel and perpendicular emission intensity, respectively, and I SB and I SP corresponds to parallel emission intensity perpendicular emission intensity of the buffer, respectively. The experimental G-factor, defined as G = I S/I P, was set to 1.0 in all experiments.

[3] = Supplementary Table 2, batch of compounds stored in the screening library, read-out: IC50
[4] = Supplementary Table 2, compound 12.5 µM
[5] = Supplementary Table 4, analogs of RU166365, m-cGAS inhibition, read-out: IC50
[6] = Supplementary Table 3, analogs more potent than RU166365, read-out: IC50

T1 sequence (Q8C6L5 whole entry): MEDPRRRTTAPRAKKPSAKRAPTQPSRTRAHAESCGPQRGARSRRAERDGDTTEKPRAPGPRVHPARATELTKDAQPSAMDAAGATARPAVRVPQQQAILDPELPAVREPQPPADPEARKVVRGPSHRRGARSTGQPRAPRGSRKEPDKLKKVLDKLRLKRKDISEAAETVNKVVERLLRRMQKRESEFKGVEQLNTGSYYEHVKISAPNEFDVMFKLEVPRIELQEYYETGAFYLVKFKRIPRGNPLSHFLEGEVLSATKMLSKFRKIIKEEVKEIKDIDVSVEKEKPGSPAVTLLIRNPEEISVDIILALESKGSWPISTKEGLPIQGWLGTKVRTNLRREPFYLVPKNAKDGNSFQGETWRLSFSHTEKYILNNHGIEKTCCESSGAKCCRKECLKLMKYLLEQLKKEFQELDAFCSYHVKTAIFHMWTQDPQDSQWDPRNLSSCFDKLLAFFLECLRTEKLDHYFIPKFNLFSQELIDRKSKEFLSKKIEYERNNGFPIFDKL

Nc1ncnc2c1ncn2[C@@H]1O[C@H](COP(=O)(O)OP(=O)(O)OP(=O)(O)O)[C@@H](O)[C@H]1O [ATP]
kcat [1]: 0.383 s⁻¹
Km [1]: 86 ± 6.7 µM

Nc1nc2c(ncn2[C@@H]2O[C@H](COP(=O)(O)OP(=O)(O)OP(=O)(O)O)[C@@H](O)[C@H]2O)c(=O)[nH]1 [GTP]
kcat [1]: 0.383 s⁻¹
Km [1]: 96.4 ± 5.1 µM

Oc1c(Cl)cc(Cl)c(Cl)c1Cc1c(O)c(Cl)cc(Cl)c1Cl [RU161]
% intercalation at 30 µM [2]: 69.6%
Polarization [2]: 108 mP
IC50 [1]: 0.39 µM
inhibition at 12.5 µM [1]: 93%

COC(=O)C1=C(C)NC(C)=C(C(=O)OC)C1c1ccccc1[N+](=O)[O-] [RU199]
IC50 [1, 3]: 0.8 µM
inhibition at 12.5 µM [1, 4]: 91%

O=[N+]([O-])c1cc([As](=O)(O)O)ccc1O [RU297]
% intercalation at 30 µM [2]: -9.8%
Polarization [2]: 271 mP

CCN(CC)CCCC(C)Nc1c2ccc(Cl)cc2nc2ccc(OC)cc12 (centres unmarked) [RU316]
Polarization [2]: 140 mP
IC50 [1, 3]: 6.22 µM
% inhibition at 12.5 µM [1, 4]: 68%

Nc1c2ccccc2nc2ccccc12 [RU431]
Polarization [2]: 145 mP
IC50 [1, 3]: 2.83 µM
inhibition at 12.5 µM [1, 4]: 78%

O=C1c2c(O)ccc(O)c2C(=O)c2c(NCCNCCO)ccc(NCCNCCO)c21 [RU627]
% intercalation at 30 µM [2]: 102.5%
Polarization [2]: 41 mP
IC50 [1, 3]: 0.72 µM
inhibition at 12.5 µM [1, 4]: 94%

CCCc1c(C)nn(-c2nc3ccccc3[nH]2)c1O [RU166418]
IC50 [1, 5]: > 25 µM

CC(C)c1ccc2oc3nc(N)c(C(=O)O)cc3c(=O)c2c1 [RU185491]
% intercalation at 30 µM [2]: 1.5%
Polarization [2]: 248 mP

Cc1ccc(-c2cc(O)n(-c3nc4ccccc4[nH]3)n2)cc1 [RU281319]
IC50 [1, 5]: > 25 µM

Cc1cc(O)n(-c2nc3ccccc3[nH]2)n1 [RU281324]
IC50 [1, 5]: > 25 µM

COc1ccc2nc(-n3nc(C)c(C4OC(=O)c5ccccc54)c3O)[nH]c2c1 (centres unmarked) [RU320459]
IC50 [1, 5]: 7.34 µM

COc1cccc2nc(-n3nc(C)c(C4OC(=O)c5ccccc54)c3O)[nH]c12 (centres unmarked) [RU320460]
IC50 [1, 5]: 5.61 µM

Cc1ccc2nc(-n3nc(C)c(C4OC(=O)c5ccccc54)c3O)[nH]c2c1 (centres unmarked) [RU320461]
IC50 [1, 6]: 0.86 µM
effect of structural modification on cGAS inhibitory potency [1]: increased inhibitory potency

Cc1nn(-c2nc3ccc(Br)cc3[nH]2)c(O)c1C1OC(=O)c2ccccc21 (centres unmarked) [RU320462]
IC50 [1, 6]: 0.64 µM
effect of structural modification on cGAS inhibitory potency [1]: increased inhibitory potency

Cc1nn(-c2nc3ccccc3[nH]2)c(O)c1C1OC(=O)c2c(Br)cccc21 (centres unmarked) [RU320463]
IC50 [1, 5]: 2.76 µM

Cc1nn(-c2nc3ccccc3[nH]2)c(O)c1C1OC(=O)c2ccc(Br)cc21 (centres unmarked) [RU320464]
IC50 [1, 5]: 2.24 µM

Cc1nn(-c2nc3ccccc3[nH]2)c(O)c1C1NC(=O)c2ccccc21 (centres unmarked) [RU320465]
IC50 [1, 5]: > 25 µM
effect of structural modification on cGAS inhibitory potency [1]: abolished inhibitory activity

Cc1nn(-c2nc3ccccc3s2)c(O)c1C1NC(=O)c2ccccc21 (centres unmarked) [RU320466]
IC50 [1, 5]: > 25 µM

Cc1nn(-c2nc3cccc(Br)c3[nH]2)c(O)c1C1OC(=O)c2ccccc21 (centres unmarked) [RU320467]
IC50 [1, 6]: 0.38 µM
effect of structural modification on cGAS inhibitory potency [1]: increased inhibitory potency

COc1ccc2c(c1)C(=O)OC2c1c(C)nn(-c2nc3ccccc3[nH]2)c1O (centres unmarked) [RU320468]
IC50 [1, 6]: 1.43 µM
effect of structural modification on cGAS inhibitory potency [1]: only minor variations in potency

Cc1nn(-c2nc3ccccc3[nH]2)c(O)c1C1OC(=O)c2cc(Br)ccc21 (centres unmarked) [RU320469]
IC50 [1, 6]: 1.32 µM
effect of structural modification on cGAS inhibitory potency [1]: only minor variations in potency

Cc1nn(-c2nc3ncccc3[nH]2)c(O)c1C1OC(=O)c2ccccc21 (centres unmarked) [RU320502]
IC50 [1, 5]: 11 µM

COc1cccc2c1C(c1c(C)nn(-c3nc4ccccc4[nH]3)c1O)OC2=O (centres unmarked) [RU320503]
IC50 [1, 5]: > 25 µM

Cc1nn(-c2nc3ccccc3[nH]2)c(O)c1C1OC(=O)c2cccc(Br)c21 (centres unmarked) [RU320504]
IC50 [1, 5]: 19.6 µM

COC(=O)c1cccc2c1C(=O)OC2c1c(C)nn(-c2nc3ccccc3[nH]2)c1O (centres unmarked) [RU320511]
IC50 [1, 5]: 6.84 µM

COC(=O)c1ccc2c(c1)C(c1c(C)nn(-c3nc4ccccc4[nH]3)c1O)OC2=O (centres unmarked) [RU320512]
IC50 [1, 5]: 8.58 µM

COC(=O)c1cccc2c1C(c1c(C)nn(-c3nc4ccccc4[nH]3)c1O)OC2=O (centres unmarked) [RU320513]
IC50 [1, 5]: > 25 µM

CC(C)c1c(C2OC(=O)c3ccccc32)c(O)nn1-c1nc2ccccc2[nH]1 (centres unmarked) [RU320514]
IC50 [1, 5]: > 25 µM

CC(C)c1nn(-c2nc3ccccc3[nH]2)c(O)c1C1OC(=O)c2ccccc21 (centres unmarked) [RU320515]
IC50 [1, 5]: 7.16 µM

Cc1nn(-c2nc3ccccc3[nH]2)c(O)c1C1OC(=O)c2cccc(C(=O)O)c21 (centres unmarked) [RU320516]
IC50 [1, 5]: > 25 µM

CC(=O)N1CCc2c(c(C)nn2-c2nc3ccccc3[nH]2)C1c1ccccc1 (centres unmarked) [RU320517]
IC50 [1, 5]: > 25 µM

CC(=O)N1CCc2nn(-c3nc4ccccc4[nH]3)c(C)c2C1c1ccccc1 (centres unmarked) [RU320518]
IC50 [1, 5]: > 25 µM

Cc1nn(-c2nc3cccc(C)c3[nH]2)c(O)c1C1OC(=O)c2ccccc21 (centres unmarked) [RU320519]
IC50 [1, 6]: 1.16 µM
effect of structural modification on cGAS inhibitory potency [1]: increased inhibitory potency

Cc1nn(-c2nc3cccc(Cl)c3[nH]2)c(O)c1C1OC(=O)c2ccccc21 (centres unmarked) [RU320520]
IC50 [1, 6]: 0.62 µM
effect of structural modification on cGAS inhibitory potency [1]: increased inhibitory potency

Cc1nn(-c2ncc(-c3ccccc3)[nH]2)c(O)c1C1OC(=O)c2ccccc21 (centres unmarked) [RU320574]
IC50 [1, 5]: > 25 µM

Cc1nn(-c2nc3cccc(-c4ccccc4)c3[nH]2)c(O)c1C1OC(=O)c2ccccc21 (centres unmarked) [RU320575]
IC50 [1, 5]: 2.35 µM

Cc1nn(-c2nc3ccc(C(=O)O)cc3[nH]2)c(O)c1C1OC(=O)c2ccccc21 (centres unmarked) [RU320577]
IC50 [1, 5]: 18 µM

Cc1nn(-c2nc3ccc(-c4ccccc4)cc3[nH]2)c(O)c1C1OC(=O)c2ccccc21 (centres unmarked) [RU320578]
IC50 [1, 5]: 3.36 µM

COC(=O)Cc1cccc2c1C(=O)OC2c1c(C)nn(-c2nc3ccccc3[nH]2)c1O (centres unmarked) [RU320579]
IC50 [1, 5]: 2.46 µM

Cc1nn(-c2nc3cccc(C(F)(F)F)c3[nH]2)c(O)c1C1OC(=O)c2ccccc21 (centres unmarked) [RU320581]
IC50 [1, 5]: 3.3 µM

Cc1nn(-c2nc3cc(Cl)cc(Cl)c3[nH]2)c(O)c1C1OC(=O)c2ccccc21 (centres unmarked) [RU320582]
IC50 [1, 6]: 0.12 µM
effect of structural modification on cGAS inhibitory potency [1]: increased inhibitory potency
improvement in potency ([1]; relative to RU.365): 17 fold

Reference: PMC5622107, “Small molecule inhibition of cGAS reduces interferon expression in primary macrophages from autoimmune mice” (Nature Communications, 2017)
